These results are taken from patent US10202367B2, “Heterocyclic compounds and methods of use thereof” (priority 2014, dated 2019).

One data set can be described thus: Aqueous solubility in PBS. The class given is physicochemical.
Details: not given
As for `Cc1ccccc1-c1nc(CN2CCC(C(=O)NCCCN3CCCCC3)CC2)c(C)o1` [Compound 9], the “Sol.” value was over 65.0 µg/mL.
Consider `Cc1ccccc1-c1nc(CN2CCC(C(=O)NCCCN3C[C@H](C)C[C@H](C)C3)CC2)c(C)o1` [Compound 63], for which the “Sol.” value came out at 54.8 µg/mL.
Still for that read-out and setting: with `Cc1ccc(-c2nc(CN3CCC(C(=O)NCCCN4C[C@H](C)C[C@H](C)C4)CC3)c(C)o2)c(C)c1` [Compound 32] the figure was over 71.0 µg/mL.
Take `Cc1ccccc1-c1nc(CN2CCC(C(=O)NCCCCN3C[C@H](C)C[C@H](C)C3)CC2)c(C)o1` [Compound 21]: the “Sol.” value was over 71.0 µg/mL.
The same measure, in the same setting: the figure for `Cc1oc(-c2c3ccccc3cc3ccccc23)nc1CN1CCC(C(=O)NCCCN2C[C@H](C)C[C@H](C)C2)CC1` [Compound 36] is 62.1 µg/mL; for `Cc1oc(-c2ccccc2Cl)nc1CN1CCC(C(=O)NCCCN2C[C@H](C)C[C@H](C)C2)CC1` [Compound 15] it is over 72.0 µg/mL; for `Cc1cccc(F)c1-c1nc(CN2CCC(C(=O)NCCCN3C[C@H](C)C[C@H](C)C3)CC2)c(C)o1` [Compound 46] it is over 72.0 µg/mL.
For `Cc1ccccc1-c1nc(CN2CCC(C(=O)NCCCN3CCC(C)CC3)CC2)c(C)o1` [Compound 10], the “Sol.” value is over 67.0 µg/mL.
On to `Cc1oc(-c2cccc(Cl)c2)nc1CN1CCC(C(=O)NCCCN2C[C@H](C)C[C@H](C)C2)CC1` [Compound 24], for which the “Sol.” value is over 72.0 µg/mL.
As to `Cc1oc(-c2c(F)cccc2F)nc1CN1CCC(C(=O)NCCCN2C[C@H](C)C[C@H](C)C2)CC1` [Compound 30], the “Sol.” value is over 72.0 µg/mL.
Still for that read-out and setting: the figure for `Cc1cc(-c2nc(CN3CCC(C(=O)NCCCN4CCC(C(C)C)CC4)CC3)co2)ccc1F` [Compound 71] is over 72 µg/mL; for `Cc1ccc(-c2nc(CN3CCC(C(=O)NCCCN4C[C@H](C)C[C@H](C)C4)CC3)c(C)o2)cc1` [Compound 19] it is over 69.0 µg/mL; for `Cc1ccccc1-c1nc(CN2CCC(C(=O)N3CCN(CCN(C)C)CC3)CC2)c(C)o1` [Compound 14] it is over 67.0 µg/mL.
The same measure, in the same setting: the figure for `Cc1ccccc1-c1nc(CN2CCC(C(=O)NCCCN3C[C@H](C)C[C@H](C)C3)CC2)c(C)o1` [Compound 26] is over 69.0 µg/mL; for `Cc1ccc2ccccc2c1-c1nc(CN2CCC(C(=O)NCCCN3C[C@H](C)C[C@H](C)C3)CC2)c(C)o1` [Compound 62] it is over 76.1 µg/mL.
The same measure, in the same setting: the figure for `Cc1oc(-c2c(F)cccc2Cl)nc1CN1CCC(C(=O)NCCCN2C[C@H](C)C[C@H](C)C2)CC1` [Compound 33] is over 75.0 µg/mL; for `Cc1ccccc1-c1nc(CN2CCC(C(=O)NCCCN3C[C@H](C)C[C@H](C)C3)CC2)c(C)o1` [Compound 27] it is over 69.0 µg/mL.
In the case of `Cc1ccccc1-c1nc(CN2CCC(C(=O)NCCCN3CCC(C)(C)CC3)CC2)c(C)o1` [Compound 50], the “Sol.” value is over 69.0 µg/mL.
With `COc1cccc(C)c1-c1nc(CN2CCC(C(=O)NCCCN3C[C@H](C)C[C@H](C)C3)CC2)c(C)o1` [Compound 45], the “Sol.” value was over 73.0 µg/mL.
For `Cc1ccccc1-c1nc(CN2CCC(C(=O)NCCCN3C[C@H](C)C[C@H](C)C3)CC2)c(C)o1` [Compound 25], the “Sol.” value is over 69.0 µg/mL.
As to `Cc1oc(-c2c(Cl)cccc2Br)nc1CN1CCC(C(=O)NCCCN2C[C@H](C)C[C@H](C)C2)CC1` [Compound 41], the “Sol.” value is over 83.0 µg/mL.
The same measure, in the same setting: the figure for `Cc1cccc(Cl)c1-c1nc(CN2CCC(C(=O)NCCCN3CCCC(C)C3)CC2)c(C)o1` (stereo not drawn) [Compound 59] is 52.6 µg/mL.
For `Cc1ccc2ccccc2c1-c1nc(CN2CCC(C(=O)NCCCN3C[C@H](C)C[C@H](C)C3)CC2)c(C)o1` [Compound 39], the “Sol.” value was over 76.0 µg/mL.
The same measure, in the same setting: the figure for `Cc1ccccc1-c1nc(CN2CCC(C(=O)N3CCN(C4CCN(C)CC4)CC3)CC2)c(C)o1` [Compound 13] is over 71.0 µg/mL; for `Cc1ccccc1-c1nc(CN2CCC(C(=O)NCCCN3CCCC(C)C3)CC2)c(C)o1` (stereo not drawn) [Compound 6] it is over 67.0 µg/mL.
Same read-out and setting: with `Cc1cc(C)cc(-c2nc(CN3CCC(C(=O)NCCCN4C[C@H](C)C[C@H](C)C4)CC3)c(C)o2)c1` [Compound 4] the figure was over 71.0 µg/mL; with `Cc1ccccc1-c1nc(CN2CCC(C(=O)NCCCN3CCC(C(C)C)CC3)CC2)c(C)o1` [Compound 5], over 71.0 µg/mL.
On the same count and under the same terms, the figure for `Cc1ccccc1-c1nc(CN2CCC(C(=O)NCCCN3C[C@H](C)C[C@@H](C)C3)CC2)c(C)o1` [Compound 47] is over 69.0 µg/mL; for `Cc1ccccc1-c1nc(CN2CCC(C(=O)NCCCN3CCCC(C(C)C)C3)CC2)c(C)o1` (stereo not drawn) [Compound 52] it is over 71 µg/mL; for `Cc1ccccc1-c1nc(CN2CCC(C(=O)NCCCN3CCCC(CC(C)C)C3)CC2)c(C)o1` (stereo not drawn) [Compound 53] it is 54.9 µg/mL.
`Cc1cccc(Cl)c1-c1nc(CN2CCC(C(=O)NCCCN3CCC(C)(C)CC3)CC2)c(C)o1` [Compound 60]: the “Sol.” value is over 74 µg/mL.
On to `Cc1oc(-c2ccc(Cl)cc2)nc1CN1CCC(C(=O)NCCCN2C[C@H](C)C[C@H](C)C2)CC1` [Compound 16], for which the “Sol.” value was over 72.0 µg/mL.
As for `Cc1ccccc1-c1nc(CN2CCC(C(=O)NCCCN3C[C@H](C)C[C@H](C)C3)CC2)c(C)o1` [Compound 29], the “Sol.” value is over 69.0 µg/mL.
On the same count and under the same terms, the figure for `COc1cccc(F)c1-c1nc(CN2CCC(C(=O)NCCCN3C[C@H](C)C[C@H](C)C3)CC2)c(C)o1` [Compound 38] is over 74.0 µg/mL; for `Cc1ccccc1-c1nc(CN2CCC(C(=O)NCCCN3CCOCC3)CC2)c(C)o1` [Compound 12] it is over 65.0 µg/mL; for `Cc1ccc(C)c(-c2nc(CN3CCC(C(=O)NCCCN4C[C@H](C)C[C@H](C)C4)CC3)c(C)o2)c1` [Compound 34] it is 56.1 µg/mL.
With `Cc1ccccc1-c1nc(CN2CCC(C(=O)NCCCN3CC4CCCC(C4)C3)CC2)c(C)o1` [Compound 54], the “Sol.” value is “> .71 µg/mL”.
For the molecule `Cc1ccc(-c2nc(CN3CCC(C(=O)NCCCN4C[C@H](C)C[C@H](C)C4)CC3)c(C)o2)cc1C` [Compound 22], the “Sol.” value was over 71.0 µg/mL.
The same measure, in the same setting: the figure for `Cc1ccccc1-c1nc(CN2CCC(C(=O)NCCCN3C[C@H](C)C[C@H](C)C3)CC2)c(C)s1` [Compound 65] is over 71.0 µg/mL; for `Cc1ccccc1-c1nc(CN2CCC(C(=O)NCCN3C[C@H](C)C[C@H](C)C3)CC2)c(C)o1` [Compound 20] it is over 67.0 µg/mL.
Still for that read-out and setting: the figure for `COc1cccc(Cl)c1-c1nc(CN2CCC(C(=O)NCCCN3C[C@H](C)C[C@H](C)C3)CC2)c(C)o1` [Compound 42] is over 76.0 µg/mL; for `Cc1ccccc1-c1nc(CN2CCC(C(=O)NCCCN3C[C@H](C)C[C@H](C)C3)CC2)c(C)o1` [Compound 28] it is 54.8 µg/mL; for `Cc1oc(-c2c(Cl)cccc2C(F)(F)F)nc1CN1CCC(C(=O)NCCCN2C[C@H](C)C[C@H](C)C2)CC1` [Compound 44] it is 65.1 µg/mL.

The same data set, now with this note: pH 7.4.
As to `Cc1oc(-c2c(Cl)cccc2Cl)nc1CN1CCC(C(=O)NCCCN2C[C@H](C)C[C@H](C)C2)CC1` [Compound 35], the “Sol.” value is over 77.0 µg/mL.
On the same count and under the same terms, with `Cc1oc(-c2c(Br)cccc2Br)nc1CN1CCC(C(=O)NCCCN2C[C@H](C)C[C@H](C)C2)CC1` [Compound 43] the figure was 62.4 µg/mL.
